For experiment [1], the target named is HTR1B (Homo sapiens, UniProt P28222). Put plainly: LANCE Ultra cAMP assay. (In TR-FRET formats the signal depends on donor and acceptor labels being close together.)
Experiment [2] concerns the target T1, OPRD1 (Homo sapiens, UniProt P41143).
T1 construct: Pharmaron (Beijing, China), contract laboratory
Put plainly: GPCR calcium flux assay. In kind it is cell-based. As to conditions: read-out: Known agonists EC50. (Calcium assays in cells follow changes in intracellular calcium, usually with a dye or a luminescent sensor.)

The target of experiment [3] is T2, BB1 (Homo sapiens, UniProt P28336).
T2 construct: Pharmaron (Beijing, China), contract laboratory
T2 sequence (P28336 whole entry): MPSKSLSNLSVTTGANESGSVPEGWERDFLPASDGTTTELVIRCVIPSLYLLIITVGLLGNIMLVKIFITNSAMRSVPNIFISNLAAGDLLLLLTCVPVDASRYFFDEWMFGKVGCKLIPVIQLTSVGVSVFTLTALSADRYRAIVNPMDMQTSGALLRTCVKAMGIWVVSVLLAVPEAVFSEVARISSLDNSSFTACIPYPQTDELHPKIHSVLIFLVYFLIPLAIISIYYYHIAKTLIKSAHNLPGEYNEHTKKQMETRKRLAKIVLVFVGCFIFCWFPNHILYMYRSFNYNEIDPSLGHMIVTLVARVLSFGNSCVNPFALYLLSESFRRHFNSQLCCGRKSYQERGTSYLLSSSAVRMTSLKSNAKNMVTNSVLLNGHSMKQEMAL
Put plainly: GPCR calcium flux assay. In kind it is cell-based. As to conditions: read-out: Known agonists EC50.

For experiment [4], the target named is T3, AT1 (Homo sapiens, UniProt P30556).
T3 construct: Pharmaron (Beijing, China), contract laboratory
T3 sequence (P30556 whole entry): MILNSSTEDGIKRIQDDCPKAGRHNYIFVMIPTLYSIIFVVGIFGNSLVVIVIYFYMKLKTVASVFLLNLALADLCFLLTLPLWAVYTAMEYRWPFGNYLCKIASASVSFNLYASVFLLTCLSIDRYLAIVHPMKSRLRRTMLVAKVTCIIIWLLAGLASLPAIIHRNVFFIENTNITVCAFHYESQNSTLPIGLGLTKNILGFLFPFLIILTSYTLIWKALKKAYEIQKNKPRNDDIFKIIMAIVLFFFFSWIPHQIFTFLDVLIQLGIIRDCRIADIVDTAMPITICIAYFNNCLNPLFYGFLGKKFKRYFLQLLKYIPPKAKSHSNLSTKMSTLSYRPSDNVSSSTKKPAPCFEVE
Put plainly: GPCR calcium flux assay. The format is cell-based. Conditions: read-out: Known agonists EC50.

Experiment [5] has as its target T4, HTR2B (Homo sapiens, UniProt P41595).
T4 construct: Pharmaron (Beijing, China), contract laboratory
Kind of experiment: GPCR calcium flux assay. In kind it is cell-based.

Experiment [6] has as its target CB2 (Homo sapiens, UniProt P34972). Kind of experiment: LANCE Ultra cAMP assay. Conditions: read-out: IC50 (known antagonists, TP-16); CB2.

Structures can show the parent of a compound that is named as a salt. Where no end group is shown, it is not given here.

Sequence of HTR1B (P28222 whole entry): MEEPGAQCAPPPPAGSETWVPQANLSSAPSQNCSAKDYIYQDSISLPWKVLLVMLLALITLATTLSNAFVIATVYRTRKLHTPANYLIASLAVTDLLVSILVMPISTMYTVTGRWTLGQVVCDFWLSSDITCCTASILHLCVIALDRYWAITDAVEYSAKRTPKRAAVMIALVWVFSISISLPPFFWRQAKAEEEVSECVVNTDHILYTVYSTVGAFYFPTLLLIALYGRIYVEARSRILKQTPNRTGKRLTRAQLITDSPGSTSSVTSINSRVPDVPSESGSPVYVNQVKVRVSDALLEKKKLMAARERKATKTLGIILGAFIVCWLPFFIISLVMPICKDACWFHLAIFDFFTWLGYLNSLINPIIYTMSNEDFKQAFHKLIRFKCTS
Sequence of CB2 (P34972 whole entry, species assumed): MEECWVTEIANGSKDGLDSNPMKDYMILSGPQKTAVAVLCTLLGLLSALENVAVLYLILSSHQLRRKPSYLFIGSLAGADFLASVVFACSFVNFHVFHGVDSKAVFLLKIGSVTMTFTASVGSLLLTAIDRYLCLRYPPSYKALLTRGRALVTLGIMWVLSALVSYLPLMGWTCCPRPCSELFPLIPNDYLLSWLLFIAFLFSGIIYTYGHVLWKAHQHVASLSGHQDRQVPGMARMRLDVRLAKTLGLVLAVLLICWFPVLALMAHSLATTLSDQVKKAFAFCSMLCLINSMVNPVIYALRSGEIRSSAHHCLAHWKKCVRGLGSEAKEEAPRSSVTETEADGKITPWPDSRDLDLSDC
T4 sequence (P41595 whole entry, species assumed): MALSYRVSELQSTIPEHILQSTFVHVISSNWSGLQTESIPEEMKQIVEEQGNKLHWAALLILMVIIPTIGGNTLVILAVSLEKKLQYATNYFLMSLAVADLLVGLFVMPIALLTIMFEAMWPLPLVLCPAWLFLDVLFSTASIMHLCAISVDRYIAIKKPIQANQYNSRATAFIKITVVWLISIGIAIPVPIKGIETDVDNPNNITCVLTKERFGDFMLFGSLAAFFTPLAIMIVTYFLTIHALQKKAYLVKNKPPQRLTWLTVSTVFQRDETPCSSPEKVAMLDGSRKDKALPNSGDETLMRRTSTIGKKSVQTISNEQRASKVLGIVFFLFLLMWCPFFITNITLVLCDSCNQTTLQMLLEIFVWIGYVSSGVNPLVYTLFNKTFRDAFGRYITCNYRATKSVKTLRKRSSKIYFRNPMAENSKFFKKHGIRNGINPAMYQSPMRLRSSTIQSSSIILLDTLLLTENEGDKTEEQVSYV
T1 sequence (P41143 whole entry, species assumed): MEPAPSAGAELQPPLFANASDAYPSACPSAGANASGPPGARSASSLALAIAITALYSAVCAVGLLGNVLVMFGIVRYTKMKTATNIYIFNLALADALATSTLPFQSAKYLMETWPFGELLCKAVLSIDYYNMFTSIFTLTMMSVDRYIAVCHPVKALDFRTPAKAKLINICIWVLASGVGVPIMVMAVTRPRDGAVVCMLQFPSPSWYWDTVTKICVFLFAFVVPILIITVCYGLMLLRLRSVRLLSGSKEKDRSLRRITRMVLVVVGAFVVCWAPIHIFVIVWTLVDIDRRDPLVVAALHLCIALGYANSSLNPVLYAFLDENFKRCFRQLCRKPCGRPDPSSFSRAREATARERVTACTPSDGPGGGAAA

For the compound `CN(C)CCCc1cc(C(=O)Nc2ccc(-c3ccncc3)cc2)ccc1O` [GR 55562 dihydrochloride], the IC50 (as a rule, the concentration needed to halve the response being measured) in experiment [1] (read-out: IC50 (known antagonists, TP-16), HTR1B) stood at 35 nM.
Turning to `CCN(CC)C(=O)c1ccc(C2=CC3(CCNCC3)Oc3cccc(O)c32)cc1` [ADL-5859, reference compound], the 50% effective concentration (EC50) (commonly the midpoint of the concentration-response curve) in experiment [2] came to 266 nM.
Regarding `CSCC[C@H](NC(=O)[C@H](Cc1ccccc1)NC(=O)[C@H](Cc1c[nH]cn1)NC(=O)CNC(=O)[C@@H](NC(=O)[C@H](C)NC(=O)[C@H](Cc1c[nH]c2ccccc12)NC(=O)[C@H](CC(C)C)NC(=O)[C@H](CC(N)=O)NC(=O)CN)[C@@H](C)O)C(N)=O` [Neuromedin B, reference compound], the EC50 in experiment [3] was found to be 0.2 nM.
As for DRVYVHPF [Angiotensin II 5-valine], the EC50 in experiment [4] came to 0.2 nM.
In the case of `Cc1nc2sccn2c(=O)c1CCN1CCC(=C(c2ccc(F)cc2)c2ccc(F)cc2)CC1` [Ritanserin, reference compound], in experiment [5], the IC50 amounted to 30.8 nM.
For the compound `COc1ccc(C(=O)c2c(C)n(CCN3CCOCC3)c3cc(I)ccc23)cc1` [AM630, reference compound], the IC50 in experiment [6] came out at 260 nM.
In turn, `COc1ccc2[nH]cc(C3=CCNCC3)c2c1` [RU24969] registered an EC50 in experiment [1] of 18 nM.

These data come from paper PMC7799360, “Reprogramming immunosuppressive myeloid cells facilitates immunotherapy for colorectal cancer” (EMBO Molecular Medicine, 2020).
